Data as given in the NIST ThermoML archive (doi:10.1016/j.jct.2013.08.002).
Numbers after ± are expanded uncertainties.

Experiment: relative permittivity at various frequencies (dimensionless)
Details: 101 kPa, Liquid, Frequency=0.01 MHz, Coaxial cylinder capacitor

NCCNCCO [N-(2-aminoethyl)ethanolamine]
Details	relative permittivity
293.2 K	21.51 ± 0.2
299.2 K	19.87 ± 0.2
304.2 K	18.18 ± 0.2
308.2 K	17.09 ± 0.2
314.2 K	15.84 ± 0.2
320.2 K	14.64 ± 0.2
323.2 K	13.97 ± 0.2
330.2 K	12.89 ± 0.2
333.2 K	12.3 ± 0.2
339.2 K	11.37 ± 0.2
343.2 K	10.77 ± 0.2
348.2 K	10.19 ± 0.2
